Data set [1] deals with P. aeruginosa MB9799 (efflux-, IMP-1 plasmid). The data set is classed as cell-based, Pseudomonas aeruginosa. The following applies: efflux − (MB9799) strain; imipenem at 2 μg/mL; in the presence of a class A, C, D serine β-lactamase inhibitor closely related to relebactam. Put shortly:
(§1)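 PAO1-derived isogenic pair (oprD+, inducible AmpC), efflux+ MB5919 or efflux− MB5890 parent, carrying an electroporated IMP-1 plasmid from a clinical isolate. Microbroth MIC with fixed imipenem and/or ceftazidime (usually CLSI breakpoint) plus fixed class A/C inhibitor; MBL inhibitor serially titrated, concentration restoring susceptibility recorded.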

For another data set, the target named is VIM-1 (Pseudomonas aeruginosa (strain ATCC 15692 / DSM 22644 / CIP 104116 / JCM 14847 / LMG 12228 / 1C / PRS 101 / PAO1), UniProt A0A0F7KYQ8). The data set is described as follows: biochemical. The following applies: CCF2-FA fluorescence assay, 2 hours at 25° C.; read-out: VIM1 IC50. Put shortly:
(§2)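 In 100 mM phosphate pH 7 containing Tween-20 and ZnSO4, NDM-1 (1 pM), IMP-1 (2 pM) or VIM-1 (30 pM) hydrolysed 1.25 μM CCF2-FA over 2 hours at 25° C with inhibitor present. Readout was 405/460 nm fluorescence.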

For the next data set, the target named is IMP-1 (Serratia marcescens, UniProt P52699). Description: biochemical. The following applies: CCF2-FA fluorescence assay, 2 hours at 25° C.; read-out: IMP1 IC50. An outline of the steps:
as §2

For another data set, the target named is NDM-1 (Klebsiella pneumoniae, UniProt C7C422). Description: biochemical. Type of data set: biochemical. The following applies: CCF2-FA fluorescence assay, 2 hours at 25° C. Put shortly:
as §2

The subject of data set [2] is P. aeruginosa MB9798 (efflux+, IMP-1 plasmid). The following applies: for MB9798 MITC95 P. aeruginosa uM Efflux WT: efflux + (MB9798) strain, imipenem at 2 μg/mL, in the presence of a class A, C, D serine β-lactamase inhibitor closely related to relebactam; for Efflux ratio: fold difference between efflux+ (MB9798) and efflux− (MB9799) strains. An outline of the steps: as §1

The target of a further data set is VIM-2 (Escherichia coli, UniProt Q5U7L7). Description: biochemical. The following applies: CCF2-FA fluorescence assay; read-out: VIM2 IC50.
Data set [3] concerns Escherichia coli expressing NDM-1 (CLB30016). Type of data set: cell-based. The following applies: with imipenem 1 μg/ml; 95% inhibition of bacterial growth. Put shortly: (§3)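 MITC95 denotes the minimal test-compound level that, combined with 1 μg/ml imipenem, blocks 95% of bacterial growth, measured by absorbance. Overnight-grown clinical isolates were diluted 1:100 in CAMHB and incubated with both agents at 35° C for 22–24 h.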

Data set [4] concerns Serratia marcescens expressing IMP-1 (CL5741). Type of data set: cell-based. To be noted: with imipenem 1 μg/ml; 95% inhibition of bacterial growth. An outline of the steps:
as §3

In data set [5] the test system is Klebsiella pneumoniae expressing VIM-1 (IHMA599644). The data set is classed as cell-based. The following applies: with imipenem 1 μg/ml; 95% inhibition of bacterial growth. An outline of the steps:
as §3

The structures appear in SMILES notation.

Sequence of IMP-1 (P52699 whole entry, looked up, species assumed): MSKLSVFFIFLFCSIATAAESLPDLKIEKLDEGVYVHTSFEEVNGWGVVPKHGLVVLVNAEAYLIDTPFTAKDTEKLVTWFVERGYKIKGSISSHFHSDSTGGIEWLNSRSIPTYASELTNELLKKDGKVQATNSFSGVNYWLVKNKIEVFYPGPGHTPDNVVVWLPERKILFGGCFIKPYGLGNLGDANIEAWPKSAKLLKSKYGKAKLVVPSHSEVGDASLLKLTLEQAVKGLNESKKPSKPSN
Sequence of NDM-1 (C7C422 whole entry, looked up, species assumed): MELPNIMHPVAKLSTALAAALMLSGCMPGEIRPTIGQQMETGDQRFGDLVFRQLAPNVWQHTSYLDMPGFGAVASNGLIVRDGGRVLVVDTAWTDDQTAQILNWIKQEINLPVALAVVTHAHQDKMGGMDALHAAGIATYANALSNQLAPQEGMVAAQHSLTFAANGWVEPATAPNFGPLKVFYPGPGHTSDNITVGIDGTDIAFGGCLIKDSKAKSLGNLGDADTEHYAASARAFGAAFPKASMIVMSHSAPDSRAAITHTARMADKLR

A word on the IC50: it is the concentration needed to halve the response being measured. Turning to `CC(=O)N[C@H]1CCN(c2ccc(S(=O)(=O)N[C@@H]3CCNC3)c(S(N)(=O)=O)c2-c2nnn[nH]2)C1` [Example 83, N-[(3S)-1-{4-[(3R)-pyrrolidin-3-ylsulfamoyl]-3-sulfamoyl-2-(1H-tetrazol-5-yl)phenyl}pyrrolidin-3-yl]acetamide], the “MB9799 MITC95 P. aeruginosa uM Efflux Mutant” value in data set [1] was determined as 3.13 µM. Moreover, the IC50 on VIM-1 turned out to be 2.11 nM; at IMP-1, 15.9 nM; against NDM-1 it was 4.98 nM; at VIM-2, 2.82 nM. The “MB9798 MITC95 P. aeruginosa uM Efflux WT” value in data set [2] is 12.50 µM. In [2], the Efflux ratio came to 4.00. In data set [3], the “CLB30016 E. coli MITC95 NDM” value is 6.25 µM. In addition, the “CL5741 S. marcescens MITC95 IMP” value in [4] is 3.13 µM. Also, in data set [5], the “IHMA599644 K. pneumoniae MITC95 VIM” value came to 12.50 µM.
As to `NS(=O)(=O)c1c(S(=O)(=O)N[C@@H]2CCNC2)ccc(N2CC3(CCNCC3)C2)c1-c1nnn[nH]1` [Example 113, 4-(2,7-diazaspiro[3.5]non-2-yl)-N1-[(3R)-pyrrolidin-3-yl]-3-(1H-tetrazol-5-yl)benzene-1,2-disulfonamide], in data set [1], the “MB9799 MITC95 P. aeruginosa uM Efflux Mutant” value was determined as 0.78 µM. Further, the IC50 on VIM-1 was determined as 0.81 nM; on IMP-1, 33.1 nM; on NDM-1 it was 13.7 nM; on VIM-2 it was 119 nM. Moreover, in [2], the “MB9798 MITC95 P. aeruginosa uM Efflux WT” value is 6.25 µM. Also, the Efflux ratio in data set [2] stood at 8.00. For the same molecule, in [3], the “CLB30016 E. coli MITC95 NDM” value was 0.78 µM. The “CL5741 S. marcescens MITC95 IMP” value in [4] was determined as 1.56 µM. The “IHMA599644 K. pneumoniae MITC95 VIM” value in [5] is 1.56 µM.
For `NS(=O)(=O)c1c(S(=O)(=O)N[C@@H]2CCNC2)ccc(N2CCCN(CCO)CC2)c1-c1nnn[nH]1` [Example 69, 4-[4-(2-hydroxyethyl)-1,4-diazepan-1-yl]-N1-[(3R)-pyrrolidin-3-yl]-3-(1H-tetrazol-5-yl)benzene-1,2-disulfonamide], the “MB9799 MITC95 P. aeruginosa uM Efflux Mutant” value in data set [1] came to 3.13 µM. In addition, the IC50 on VIM-1 was determined as 1.6 nM; at IMP-1, 29.6 nM; against NDM-1, 16.2 nM; at VIM-2 it was 13.3 nM. Moreover, the “MB9798 MITC95 P. aeruginosa uM Efflux WT” value in data set [2] was found to be 12.50 µM. In addition, the Efflux ratio in data set [2] came to 4.00. For the same molecule, the “CLB30016 E. coli MITC95 NDM” value in data set [3] is 0.78 µM. Also, the “CL5741 S. marcescens MITC95 IMP” value in data set [4] was 3.13 µM. In addition, the “IHMA599644 K. pneumoniae MITC95 VIM” value in data set [5] was found to be 1.56 µM.
Turning to `NS(=O)(=O)c1c(S(=O)(=O)N[C@@H]2CCNC2)ccc(N2CCNC(CO)CC2)c1-c1nn[nH]n1` (stereo partly drawn) [Example 127, 4-(5-(hydroxymethyl)-1,4-diazepan-1-yl)-N1-((R)-pyrrolidin-3-yl)-3-(2H-tetrazol-5-yl)benzene-1,2-disulfonamide], the “MB9799 MITC95 P. aeruginosa uM Efflux Mutant” value in [1] worked out at 0.78 µM. Besides, the IC50 on VIM-1 came out at 1.25 nM; at IMP-1, 33.7 nM; against NDM-1, 18.9 nM; on VIM-2 it was 24.6 nM. For the same molecule, the “MB9798 MITC95 P. aeruginosa uM Efflux WT” value in data set [2] was found to be 3.13 µM. The Efflux ratio in data set [2] is 4.00. The “CLB30016 E. coli MITC95 NDM” value in data set [3] is 0.39 µM. For the same molecule, in [4], the “CL5741 S. marcescens MITC95 IMP” value turned out to be 0.78 µM. Moreover, the “IHMA599644 K. pneumoniae MITC95 VIM” value in data set [5] was found to be 0.78 µM.
Take `NCCNS(=O)(=O)c1ccc(N2CCN(CCCO)CC2)c(-c2nnn[nH]2)c1S(N)(=O)=O` [Example 41, N1-(2-aminoethyl)-4-(4-(3-hydroxypropyl)piperazin-1-yl)-3-(1H-tetrazol-5-yl)benzene-1,2-disulfonamide]: in data set [1], the “MB9799 MITC95 P. aeruginosa uM Efflux Mutant” value was 0.39 µM. Moreover, the IC50 at VIM-1 came out at 11.5 nM; on IMP-1, 6.04 nM; against NDM-1, 5.98 nM; on VIM-2 it was 14.8 nM. Also, the “MB9798 MITC95 P. aeruginosa uM Efflux WT” value in data set [2] came out at 1.56 µM. Besides, the Efflux ratio in [2] is 4.00. Also, the “CLB30016 E. coli MITC95 NDM” value in data set [3] came to 0.10 µM. In data set [4], the “CL5741 S. marcescens MITC95 IMP” value came to 0.10 µM. Also, the “IHMA599644 K. pneumoniae MITC95 VIM” value in data set [5] is 1.56 µM.
With `NCCC1CCN(c2ccc(S(=O)(=O)NC[C@H](O)CN)c(S(N)(=O)=O)c2-c2nn[nH]n2)CC1` [Example 24, (R)-N^1-(3-amino-2-hydroxypropyl)-4-(4-(2-aminoethyl)piperidin-1-yl)-3-(2H-tetrazol-5-yl)benzene-1,2-disulfonamide], the “MB9799 MITC95 P. aeruginosa uM Efflux Mutant” value in data set [1] amounted to 1.56 µM. The IC50 on VIM-1 came out at 0.45 nM; at IMP-1, 5.79 nM; on NDM-1 it was 5.09 nM; at VIM-2, 5.6 nM. Also, in data set [2], the “MB9798 MITC95 P. aeruginosa uM Efflux WT” value came out at 1.56 µM. For the same molecule, in data set [2], the Efflux ratio worked out at 1.00. Besides, the “CLB30016 E. coli MITC95 NDM” value in data set [3] is 1.56 µM. Also, the “CL5741 S. marcescens MITC95 IMP” value in [4] turned out to be 3.13 µM. Also, the “IHMA599644 K. pneumoniae MITC95 VIM” value in [5] is 6.25 µM.
For `NC[C@H](N)CNS(=O)(=O)c1ccc(N2CCN(CCO)CC2)c(-c2nnn[nH]2)c1S(N)(=O)=O` [Example 49, (S)-N1-(2,3-diaminopropyl)-4-(4-(2-hydroxyethyl)piper-azin-1-yl)-3-(1H-tetrazol-5-yl)benzene-1,2-disulfonamide], the “MB9799 MITC95 P. aeruginosa uM Efflux Mutant” value in [1] was found to be 1.56 µM. Further, the IC50 on VIM-1 was 13.6 nM; on IMP-1, 9.13 nM; against NDM-1, 5.3 nM; at VIM-2, 20.2 nM. Besides, the “MB9798 MITC95 P. aeruginosa uM Efflux WT” value in data set [2] amounted to 1.56 µM. Further, the Efflux ratio in [2] is 1.00. Also, the “CLB30016 E. coli MITC95 NDM” value in data set [3] is 0.20 µM. The “CL5741 S. marcescens MITC95 IMP” value in data set [4] is 0.20 µM. For the same molecule, the “IHMA599644 K. pneumoniae MITC95 VIM” value in data set [5] was 1.56 µM.
For `CN(C)[C@@H]1CCN(c2ccc(S(=O)(=O)N[C@@H]3CCNC3)c(S(N)(=O)=O)c2-c2nnn[nH]2)C1` [Example 68, 4-[(3R)-3-(dimethylamino)pyrrolidin-1-yl]-N1-[(3R)-pyrrolidin-3-yl]-3-(1H-tetrazol-5-yl)benzene-1,2-disulfonamide], the “MB9799 MITC95 P. aeruginosa uM Efflux Mutant” value in [1] is 1.56 µM. In addition, the IC50 amounted to 2.11 nM at VIM-1, 16.2 nM on IMP-1, 22.1 nM against NDM-1 and 17.8 nM on VIM-2. For the same molecule, in [2], the “MB9798 MITC95 P. aeruginosa uM Efflux WT” value stood at 12.50 µM. In data set [2], the Efflux ratio turned out to be 8.00. Besides, the “CLB30016 E. coli MITC95 NDM” value in [3] is 0.78 µM. The “CL5741 S. marcescens MITC95 IMP” value in [4] turned out to be 1.56 µM. Moreover, the “IHMA599644 K. pneumoniae MITC95 VIM” value in data set [5] was 1.56 µM.
As to `NC[C@@H](O)CNS(=O)(=O)c1ccc(N2CCC3(CC2)CNC(N)=N3)c(-c2nn[nH]n2)c1S(N)(=O)=O` [Example 171, (R)—N1-(3-amino-2-hydroxypropyl)-4-(2-amino-1,3,8-triazaspiro [4.5]dec-1-en-8-yl)-3-(2H-tetrazol-5-yl)benzene-1,2-disulfonamide], the “MB9799 MITC95 P. aeruginosa uM Efflux Mutant” value in data set [1] is 0.39 µM. The IC50 on VIM-1 came to 0.92 nM; on IMP-1 it was 7.39 nM; at NDM-1, 3.38 nM; at VIM-2, 27.8 nM. In [2], the “MB9798 MITC95 P. aeruginosa uM Efflux WT” value came to 0.78 µM. In addition, in [2], the Efflux ratio is reported as 2.00. Besides, the “CLB30016 E. coli MITC95 NDM” value in data set [3] stood at 0.39 µM. The “CL5741 S. marcescens MITC95 IMP” value in data set [4] is 0.78 µM. Besides, in data set [5], the “IHMA599644 K. pneumoniae MITC95 VIM” value was 0.78 µM.
With `NC[C@@H](O)CNS(=O)(=O)c1ccc(N2CCC(N)CC2)c(-c2nn[nH]n2)c1S(N)(=O)=O` [Example 194, (R)-N1-(3-amino-2-hydroxypropyl)-4-(4-aminopiperidin-1-yl)-3-(2H-tetrazol-5-yl)benzene-1,2-disulfonamide], in [1], the “MB9799 MITC95 P. aeruginosa uM Efflux Mutant” value is 0.78 µM. Further, the IC50 at VIM-1 was 0.17 nM; on IMP-1, 16 nM; against NDM-1 it was 26.5 nM; on VIM-2, 14.9 nM. The “MB9798 MITC95 P. aeruginosa uM Efflux WT” value in data set [2] was determined as 0.78 µM. Besides, the Efflux ratio in data set [2] stood at 1.00. Besides, the “CLB30016 E. coli MITC95 NDM” value in [3] is 0.39 µM. The “CL5741 S. marcescens MITC95 IMP” value in [4] amounted to 0.20 µM. The “IHMA599644 K. pneumoniae MITC95 VIM” value in data set [5] was determined as 0.78 µM.

For the origin of these results see patent US11207312B2, “Metallo-beta-lactamase inhibitors and methods of use thereof” (priority 2017, dated 2021).
